Results: ChEMBL document CHEMBL1133196, “A model for ZnII-containing-beta-lactamase: synthesis, X-ray crystal structure of a zinc(II) complex bearing thiol group and hydrolysis of phosphate diester” (Bioorg Med Chem Lett, 2000)

Experiments:
[1] = Rate of hydrolysis of nitrocefin by compound was evaluated in water; format: ADME; settings: buffer
[2] = Dissociation constant was evaluated; format: physicochemical

Activity [1] | pKa [2] | Structure (SMILES)
6.5e-09 M⁻¹ s⁻¹ | 9 | [Cl-].[S-]CCN(Cc1ccccn1)Cc1ccccn1.[Zn+2]
2.52e-08 M⁻¹ s⁻¹ | 9.4 | Cl.Cl.[Zn+2].c1ccc(CNCc2ccccn2)nc1
